# Data published in patent US5624923A, “Tricyclic diazepine vasopressin antagonists and oxytocin antagonists” (priority 1995, dated 1997).
# Tests used:
# [1] = tested on: Vasopressin V1; assay: Vasopressin V1 Antagonist Activity in Conscious Rats (vasopressin vasopressor response); type: in vivo, rat; set-up: Average Change: unit not given here; details: for % Inhibition / Average Change: SHR
# Method in brief: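 Conscious rats are restrained supine, and under local 2% procaine a PE 10/20 cannula is passed through the ventral caudal tail artery into the lower abdominal aorta. The caudal vein is cannulated for intravenous dosing. Blood pressure is recorded with a Statham P23Db transducer, and vasopressin injections are repeated after compound dosing. Percent antagonism is calculated against the pre-drug vasopressor response taken as 100%.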
# [2] = target: T1, Rat Kidney Medullary V2 Receptors (Rattus norvegicus, UniProt Q00788); assay: Binding Assay to Rat Kidney Medullary V2 Receptors; details: for IC50: rat kidney medulla membranes, read-out: V2 IC50
# T1 construct: Medullary tissues from rat kidneys are dissected out; from tissue; host or cells: rat kidney medulla membranes
# T1 sequence (Q00788 whole entry): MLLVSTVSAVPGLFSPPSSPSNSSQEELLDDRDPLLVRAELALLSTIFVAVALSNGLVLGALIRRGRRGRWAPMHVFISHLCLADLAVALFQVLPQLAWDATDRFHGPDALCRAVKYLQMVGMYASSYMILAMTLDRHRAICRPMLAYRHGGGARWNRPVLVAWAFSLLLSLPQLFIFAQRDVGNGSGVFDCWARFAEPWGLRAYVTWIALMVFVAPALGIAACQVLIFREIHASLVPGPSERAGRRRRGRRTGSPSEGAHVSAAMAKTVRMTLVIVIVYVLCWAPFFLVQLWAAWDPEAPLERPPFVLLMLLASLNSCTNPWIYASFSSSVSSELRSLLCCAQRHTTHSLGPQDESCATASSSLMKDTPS
# Procedure: Binding Assay to Rat Kidney Medullary V2 Receptors
# Medullary tissues from rat kidneys are dissected out, cut into small pieces and soaked in a […] sodium chloride solution containing 1.0 mM EDTA with many changes of the liquid phase, until the solution is clear of blood. The tissue is homogenized in a 0.25M sucrose solution containing 1.0 mM EDTA and 0.1 mM PMSF using a Potter-Elvehjem homogenizer with a teflon pestle. The homogenate is filtered through several layers (4 layers) of cheese cloth. The filtrate is rehomogenized using a dounce homogenizer, with a tight fitting pestle. The final homogenate is centrifuged at 1500× g for 15 min. The nuclear pellet is discarded and the supernatant fluid recentrifuged at 40,000× g for 30 min. The resulting pellet formed contains a dark inner part with the exterior., slightly pink. The pink outer part is suspended in a small amount of 50.0 mM Tris. HCl buffer, pH 7.4. The protein content is determined by the Lowry's method (Lowry et al., J. Biol. Chem., 1953). The membrane suspension is stored at -70° C. in 50.0 mM Tris HCl, containing 0.2% inactivated BSA and 0.1 mM PMSF in aliquots of 1.0 ml containing 10.0 mg protein per ml of suspension until use in subsequent binding experiments.
# (§1) The plates are left undisturbed on the bench top for 120 min to reach equilibrium. Non-specific binding is assessed in the presence of 1.0 μM of unlabeled ligand, added in 20 μl volume. For test compounds, these are solubilized in 50% dimethylsulfoxide (DMSO) and added in 20.0 μl volume to a final incubation volume of 200 μl. Upon completion of binding, the content of each well is filtered off, using a Brandel® cell Harvester (Gaithersburg, Md.). The radioactivity trapped on the filter disk by the ligand-receptor complex is assessed by liquid scintillation counting in a Packard LS Counter, with an efficiency of 65% for tritium. The data are analyzed for IC50 values by the LUNDON-2 program for competition (LUNDON SOFTWARE, Ohio).
# [3] = target: T2, Rat Hepatic V1 Receptors (Rattus norvegicus, UniProt P30560); assay: Binding Assay to Rat Hepatic V1 Receptors; details: for IC50: rat liver membranes, read-out: V1 IC50
# T2 construct: Rat liver plasma membranes expressing the vasopressin V1 receptor subtypes; from tissue; host or cells: rat liver plasma membranes
# T2 sequence (P30560 whole entry): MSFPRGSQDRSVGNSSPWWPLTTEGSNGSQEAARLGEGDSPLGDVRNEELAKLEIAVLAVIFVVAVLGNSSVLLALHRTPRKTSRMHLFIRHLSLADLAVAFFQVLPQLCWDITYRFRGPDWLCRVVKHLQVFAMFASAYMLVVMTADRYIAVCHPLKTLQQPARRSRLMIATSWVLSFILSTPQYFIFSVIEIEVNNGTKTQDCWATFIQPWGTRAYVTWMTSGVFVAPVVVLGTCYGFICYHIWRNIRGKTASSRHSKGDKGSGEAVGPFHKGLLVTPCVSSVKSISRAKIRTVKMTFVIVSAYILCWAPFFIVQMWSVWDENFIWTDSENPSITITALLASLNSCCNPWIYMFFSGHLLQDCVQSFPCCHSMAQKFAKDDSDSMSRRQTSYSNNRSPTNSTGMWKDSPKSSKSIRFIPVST
# Procedure: Binding Assay to Rat Hepatic V1 Receptors
# Rat liver plasma membranes expressing the vasopressin V1 receptor subtypes are isolated by sucrose density gradient according to the method described by Lesko et al., (1973). These membranes are quickly suspended in 50.0 mM Tris.HCl buffer, pH 7.4, containing 0.2% bovine serum albumin (BSA) and 0.1 mM phenylmethylsulfonylfluoride (PMSF) and kept frozen at -70° C. until used in subsequent binding experiments. For binding experiments, the following is added to the wells of a ninety-six well format microtiter plate: 100 μl of 100.0 mM Tris.HCl buffer containing 10.0 mM MgCl2, 0.2% heat inactivated BSA and a mixture of protease inhibitors: leupeptin, 1.0 mg %; aprotinin, 1.0 mg %; 1,10-phenanthroiine,2.0 mg %; trypsin inhibitor, 10.0 mg % and 0.1 mM PMSF, 20.0 μl of [phenylalanyl-3,4,5, -^3 H] vasopressin (S.A. 45.1 Ci/mmole) at 0.8 nM, and the reaction initiated by the addition of 80 μl of tissue membranes containing 20 μg of tissue protein. The plates are kept undisturbed on the bench top at room temperature for 120 min. to reach equilibrium. Non-specific samples are assayed in the presence of 0.1 μM of the unlabeled antagonist phenylalanylvasopressin, added in 20.0 μl volume.
# as §1, with “For” for “The plates are left undisturbed on the bench top for 120 min to reach equilibrium. Non-specific binding is assessed in the presence of 1.0 μM of unlabeled ligand, added in 20 μl volume. For”, “μl .” for “μl.”
# [4] = 10 mg/kg i.v., VAS 0.01 i.u./kg, 30 min
# [5] = 10 mg/kg i.v., VAS 0.02 i.u./kg, 30 min
# [6] = 20 mg/kg i.v., VAS 0.01 i.u./kg, 60 min
# [7] = 20 mg/kg i.v., VAS 0.01 i.u./kg, 90 min
# [8] = 20 mg/kg i.v., VAS 0.01 i.u./kg, 120 min
# [9] = 20 mg/kg i.v., VAS 0.01 i.u./kg, 180 min
# [10] = 20 mg/kg i.v., VAS 0.01 i.u./kg, 240 min
# [11] = 20 mg/kg i.v., VAS 0.01 i.u./kg, 300 min
# [12] = 20 mg/kg i.v., VAS 0.02 i.u./kg, 60 min
# [13] = 20 mg/kg i.v., VAS 0.02 i.u./kg, 90 min
# [14] = 20 mg/kg i.v., VAS 0.02 i.u./kg, 120 min
# [15] = 20 mg/kg i.v., VAS 0.02 i.u./kg, 180 min
# [16] = 20 mg/kg i.v., VAS 0.02 i.u./kg, 240 min
# [17] = 20 mg/kg i.v., VAS 0.02 i.u./kg, 300 min
# [18] = 10 mg/kg i.v., VAS 0.01 i.u./kg, 60 min
# [19] = 10 mg/kg i.v., VAS 0.01 i.u./kg, 90 min
# [20] = 10 mg/kg i.v., VAS 0.01 i.u./kg, 120 min
# [21] = 10 mg/kg i.v., VAS 0.01 i.u./kg, 180 min
# [22] = 10 mg/kg i.v., VAS 0.01 i.u./kg, 240 min
# [23] = 10 mg/kg i.v., VAS 0.01 i.u./kg, 300 min
# [24] = 10 mg/kg i.v., VAS 0.02 i.u./kg, 60 min
# [25] = 10 mg/kg i.v., VAS 0.02 i.u./kg, 90 min
# [26] = 10 mg/kg i.v., VAS 0.02 i.u./kg, 120 min
# [27] = 10 mg/kg i.v., VAS 0.02 i.u./kg, 180 min
# [28] = 10 mg/kg i.v., VAS 0.02 i.u./kg, 240 min
# [29] = 10 mg/kg i.v., VAS 0.02 i.u./kg, 300 min
compound,measurement,setting,value
"O=C(Nc1ccc(C(=O)N2Cc3cccn3Cc3ccccc32)cc1)c1ccc2[nH]ccc2c1 [Example 117, N-[4-(5H-pyrrolo[2,1-c][1,4]benzodiazepin-10(11H)-ylcarbonyl)phenyl]-1H-indole-5-carboxamide]",% Inhibition,[1]; [4],1%
same,Average Change,[1]; [4],36
same,% Inhibition,[1]; [5],-12%
same,Average Change,[1]; [5],63
same,% Inhibition,[1]; [6],1%
same,Average Change,[1]; [6],36
same,% Inhibition,[1]; [7],38%
same,Average Change,[1]; [7],22.5
same,% Inhibition,[1]; [8],37%
same,Average Change,[1]; [8],23
same,% Inhibition,[1]; [9],27%
same,Average Change,[1]; [9],26.5
same,% Inhibition,[1]; [10],32%
same,Average Change,[1]; [10],25
same,% Inhibition,[1]; [11],29%
same,Average Change,[1]; [11],26
same,% Inhibition,[1]; [12],29%
same,Average Change,[1]; [12],40
same,% Inhibition,[1]; [13],19%
same,Average Change,[1]; [13],46
same,% Inhibition,[1]; [14],33%
same,Average Change,[1]; [14],38
same,% Inhibition,[1]; [15],19%
same,Average Change,[1]; [15],46
same,% Inhibition,[1]; [16],28%
same,Average Change,[1]; [16],40.5
same,% Inhibition,[1]; [17],25%
same,Average Change,[1]; [17],42.5
same,IC50,[2],377 nM
same,IC50,[3],2770 nM
"Cc1ccccc1C(=O)Nc1ccc(C(=O)N2Cc3cccn3Cc3sccc32)cc1 [Example 267, N-[4-(5H-Pyrrolo[1,2-a]thieno[3,2-e][1,4]diazepin-4(10H)-ylcarbonyl)phenyl]-2-methylbenzamide]",Max. % Inhibition,[1]; 10 mg/kg i.v.,56%
same,Time (of max. % inhibition),[1]; 10 mg/kg i.v.,60 min
same,IC50,[2],28 nM
same,IC50,[3],220 nM
"O=C(Cc1ccccc1F)Nc1ccc(C(=O)N2Cc3cccn3Cc3ccccc32)cc1 [Example 357, N-[4-(5H-Pyrrolo[2,1-c][1,4]benzodiazepin-10(11)ylcarbonyl)phenyl]-2-fluorobenzeneacetamide]",% Inhibition,[1]; [4],60%
same,Average Change,[1]; [4],16.5
same,% Inhibition,[1]; [18],89%
same,Average Change,[1]; [18],4.5
same,% Inhibition,[1]; [19],80%
same,Average Change,[1]; [19],8
same,% Inhibition,[1]; [20],80%
same,Average Change,[1]; [20],8
same,% Inhibition,[1]; [21],77%
same,Average Change,[1]; [21],9.5
same,% Inhibition,[1]; [22],66%
same,Average Change,[1]; [22],14
same,% Inhibition,[1]; [23],61%
same,Average Change,[1]; [23],16
same,% Inhibition,[1]; [5],68%
same,Average Change,[1]; [5],16
same,% Inhibition,[1]; [24],79%
same,Average Change,[1]; [24],10.5
same,% Inhibition,[1]; [25],79%
same,Average Change,[1]; [25],10.5
same,% Inhibition,[1]; [26],88%
same,Average Change,[1]; [26],6
same,% Inhibition,[1]; [27],78%
same,Average Change,[1]; [27],11
same,% Inhibition,[1]; [28],71%
same,Average Change,[1]; [28],14.5
same,% Inhibition,[1]; [29],68%
same,Average Change,[1]; [29],16
same,IC50,[2],17 nM
same,IC50,[3],19 nM
"Cc1ccccc1C(=O)N(C)c1ccc(C(=O)N2Cc3cccn3Cc3ccccc32)cc1 [Example 384, N-[4-(5H-Pyrrolo[2,1-c][1,4]benzodiazepin-10(11H)-ylcarbonyl)phenyl]-N-methyl-2-methylbenzamide]",% Inhibition,[1]; [4],62%
same,Average Change,[1]; [4],9
same,% Inhibition,[1]; [18],62%
same,Average Change,[1]; [18],9
same,% Inhibition,[1]; [19],49%
same,Average Change,[1]; [19],12
same,% Inhibition,[1]; [20],55%
same,Average Change,[1]; [20],10.5
same,% Inhibition,[1]; [21],53%
same,Average Change,[1]; [21],11
same,% Inhibition,[1]; [22],53%
same,Average Change,[1]; [22],11
same,% Inhibition,[1]; [23],49%
same,Average Change,[1]; [23],12
same,% Inhibition,[1]; [5],61%
same,Average Change,[1]; [5],14.5
same,% Inhibition,[1]; [24],72%
same,Average Change,[1]; [24],10.5
same,% Inhibition,[1]; [25],58%
same,Average Change,[1]; [25],15.5
same,% Inhibition,[1]; [26],69%
same,Average Change,[1]; [26],11.5
same,% Inhibition,[1]; [27],64%
same,Average Change,[1]; [27],13.5
same,% Inhibition,[1]; [28],59%
same,Average Change,[1]; [28],15
same,% Inhibition,[1]; [29],54%
same,Average Change,[1]; [29],17
same,IC50,[2],59 nM
same,IC50,[3],188 nM
"O=C(c1ccc(NS(=O)(=O)c2ccccc2Cl)cc1)N1Cc2cccn2Cc2ccccc21 [Example 488, 10-[4-[[(2-Chlorophenyl)sulfonyl]amino]benzoyl]-10,11-dihydro-5H-pyrrolo[2,1-c][1,4]benzodiazepine]",Max. % Inhibition,[1]; 30 mg/kg i.v.,43%
same,Time (of max. % inhibition),[1]; 30 mg/kg i.v.,60 min
same,inhibition at 10 µM,"[2]; 10 μM, rat",87%
same,inhibition at 10 µM,"[3]; 2 h, 10 μM, rat",96%
"O=C(Nc1ccc(C(=O)N2Cc3cccn3Cc3ccccc32)cc1)C1CCCO1 (stereo not drawn) [Example 600, N-[4-(5H-Pyrrolo[2,1-c][1,4]benzodiazepin-10(11H)-ylcarbonyl)phenyl]tetrahydrofurane-2-carboxamide]",Max. % Inhibition,[1]; 30 mg/kg i.v.,78%
same,Time (of max. % inhibition),[1]; 30 mg/kg i.v.,60 min
same,IC50,[2],740 nM
same,IC50,[3],420 nM
